Tested on: nursery pigs
Experiment: Growth performance of nursery pigs: 0-42d BWG, ADG, ADFI, FCR, with and without Mecadox (Examples 34/35)
Type: in vivo
Description: Pigs: Approximately 3,240 pigs were placed in three rooms at a nursery farm with 27 pigs per pen and 15 pens per treatment using a randomized complete block design (a total of 8 treatments across 40 pens in each of 3 rooms). All pens were balanced with 14 gilts and 13 barrows. At weaning, weight, age and sow farm source were recorded. At weaning, pigs were placed with the same number of pigs from each sow farm per pen.
Allotment: Prior to allotment and each weighing event, standard weights were placed on each corner of the scale to ensure that the scale was correctly calibrated. At placement, the average weight of the pigs in each pen were determined and the data was provided as soon as possible for treatment allotment. At weaning, pens were ranked by average weight and weight blocks and pens were assigned to the ranked weights. Treatments were then randomly assigned within weight blocks. When the treatment assignments were done, pen assignments were provided also as soon as possible, and dietary treatments information was entered into the feeding system. Pigs were granted free access to feed and water throughout the trial.
Schedule: At arrival, the pigs were allotted to pens. A common pelleted diet was fed to all pigs for 7 days. This diet contained 55 ppm of Mecadox (50 g/ton). Dietary treatments were fed from day 7 to the end of the nursery phase (approximately 55 lb). Pens were allotted to dietary treatments on day 7. Diets were fed in two phases with the first phase from day 7 to 21 after weaning and the second phase from day 21 to the end of the nursery phase (day 21 to 42 after weaning).
Treatments: Dietary treatments were randomly assigned to 40 pens in each of 3 rooms for 5 replications per room and 15 replications total. The 8 treatments were structured as a 2×4 factorial with two diet types (with and without antibiotic; 55 ppm of Mecadox) and four levels of gluco-oligosaccharide (0, 200, 400 or 600 ppm). The gluco-oligosaccharides were prepared according to the procedures set forth in Examples above. The gluco-oligosaccharides were provided on a corn meal carrier, as described in Example 18, such that the 600 ppm dose was obtained with a 0.25% final diet inclusion rate (5 lb premix per ton final feed). All diets contained the same growth promoting levels of Cu and Zn at 200 ppm Cu and 2,000 ppm Zn, in the phase 2 diets and 200 ppm Cu in the phase 3 diet. The diets containing 0 and 0.25% of the premix containing the gluco-oligosaccharides were blended to form the intermediate treatments.
Diet Preparation: Diets were fed in meal form. The four diets required were the control diets for each diet type and the diets containing 0.25% gluco-oligosaccharide premix. The actual oligosaccharide levels in the test were 0, 200, 400, and 600 ppm with a carrier used such that the premix at 0.25% (5 lb/ton) will provide 600 ppm oligosaccharide.
Live Animal Data Collection: Pigs were weighed, counted and feed disappearance determined every 7 days during the experiment. Prior to each weighing event standard weights were placed on each corner of the scale to ensure proper calibration of the scale. Pig inventory, weight, removal and feed intake data were recorded and maintained throughout the trial. Data were collected on the standard data collection spreadsheet.
Statistical analysis: Pens were randomly allotted to treatments using body weight as a blocking factor. Weight block was added to the model as a random effect. Main effects and interaction between diet type and gluco-oligosaccharide level were determined. Data was analyzed for linear and quadratic effect of gluco-oligosaccharide levels.
The BWG benefit, ADG benefit, ADFI benefit, and FCR benefit were calculated for 0-42 days by taking the ratio of the respective values with respect to their corresponding controls and performing linear regression to determine the dose-effect of the gluco-oligosaccharide, resulting in the following regression equations set forth in Table 12 below. […]

[1] = 0-42d, Mecadox 55 ppm, Oligo 0 ppm
[2] = 0-42d, from regression equations, antibiotic growth promoter alone
[3] = nursery pigs, vs control, Mecadox 55 ppm, gluco-oligosaccharide 600 ppm without antibiotic (from regression)

Q: Which ADFI [1] does the source give for COC(=O)N/N=C/c1c[n+]([O-])c2ccccc2[n+]1[O-] [Mecadox] here?
A: The ADFI was 1.37 lbs/day.

Q: What about the ADG [1] of the same compound?
A: The ADG was 0.93 lbs/day.

Q: And the BWG [1]?
A: The BWG was 40.69 lbs.

Q: What about the FCR [1] of the same compound?
A: Its FCR is 1.47 lbs/lbs.

Q: What about the “ADFI Benefit” value [2] of the same compound?
A: The value was 2.4%.

Q: And the “ADG Benefit” value [2]?
A: Its value is 3.2%.

Q: What about the “BWG Benefit” value [2] of the same compound?
A: The value was 2.5%.

Q: What about the “FCR Benefit” value [2] of the same compound?
A: The value was −0.2%.

Q: And the “0-42d FCR” value (nursery pigs, vs control, Mecadox 55 ppm, gluco-oligosaccharide 600 ppm)?
A: The value was “did not improve”.

Q: And the “improved 0-42d ADG” value [3]?
A: The value was 3.2%.

Q: What about the “improved 0-42d ADGI” value [3] of the same compound?
A: The value was 2.4%.

Q: What about the “improved 0-42d BWG” value [3] of the same compound?
A: The value was 2.5%.
